# Target: T1, human androgen receptor (Homo sapiens, UniProt P10275)
# T1 construct: host or cells: MCF-7 cytosol (endogenous) or CHO cells transfected with hAR
# T1 sequence (P10275 1-920): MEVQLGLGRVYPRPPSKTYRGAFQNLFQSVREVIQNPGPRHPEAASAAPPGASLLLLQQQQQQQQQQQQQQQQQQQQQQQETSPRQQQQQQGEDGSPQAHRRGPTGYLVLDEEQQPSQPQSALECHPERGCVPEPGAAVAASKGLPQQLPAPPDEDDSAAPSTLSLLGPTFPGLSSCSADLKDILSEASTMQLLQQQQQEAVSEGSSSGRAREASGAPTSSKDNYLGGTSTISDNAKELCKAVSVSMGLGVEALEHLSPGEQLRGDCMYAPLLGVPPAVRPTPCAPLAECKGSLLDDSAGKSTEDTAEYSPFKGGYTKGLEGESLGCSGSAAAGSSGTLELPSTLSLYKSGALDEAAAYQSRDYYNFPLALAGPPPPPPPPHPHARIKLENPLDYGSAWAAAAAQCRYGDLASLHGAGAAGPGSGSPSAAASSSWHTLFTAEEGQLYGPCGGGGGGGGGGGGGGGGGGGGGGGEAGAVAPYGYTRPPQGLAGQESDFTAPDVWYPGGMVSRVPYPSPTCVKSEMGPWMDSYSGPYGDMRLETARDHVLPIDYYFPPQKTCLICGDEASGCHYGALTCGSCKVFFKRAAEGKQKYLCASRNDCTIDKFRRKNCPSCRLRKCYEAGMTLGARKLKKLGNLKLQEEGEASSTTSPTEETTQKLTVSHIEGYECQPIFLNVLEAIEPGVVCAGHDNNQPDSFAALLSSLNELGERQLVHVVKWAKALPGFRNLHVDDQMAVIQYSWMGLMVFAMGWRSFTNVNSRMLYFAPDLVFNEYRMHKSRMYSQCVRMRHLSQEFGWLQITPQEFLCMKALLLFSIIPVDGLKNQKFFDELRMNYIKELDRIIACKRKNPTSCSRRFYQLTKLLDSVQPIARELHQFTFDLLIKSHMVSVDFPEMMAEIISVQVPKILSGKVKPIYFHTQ
# Assay: androgenic activity rating (procedures described above; which one underlies the rating is not stated)
# Design: key: +: androgenic activity found; ++: high androgenic activity; +++: excellent androgenic activity
# Description: Androgenic activity can be measured in various ways. Thus, the potency of androgens can be determined in vitro using the cytoplasmic androgen receptor from human breast tumor cells (MCF-7 cell line); see Bergink, E. W. et al, Comparison of the receptor binding properties of nandrolone and testosterone under in vitro and in vivo conditions, J. Steroid Biochem. 22, 831-836 (1985). It is also possible to use Chinese hamster ovary (CHO) cells transfected with the human androgen receptor (incubation time 16 h, temperature 4° C.) and compared with the affinity of 5α-dihydrotestosterone [according to the procedure described by Bergink, E. W. et al, J. Steroid Biochem. 12, 1563-1570 (1983)]. The transactivative androgen activity of the compounds of the invention can be measured, e.g. in Chinese hamster ovary cells (CHO) transfected with the human androgen receptor (hAR), in combination with a mouse mammary tumor virus (MMTV), and luciferase […] (incubation time 16 h, temperature 37° C.) and compared with the activity of 5α-dihydrotestosterone [according to the procedure described by Schoonen, W. G. E. J. et al, Analyt. Biochem. 261, 222-224 (1998)]. For the in vivo potency determination of androgens the classical Hershberger test can be used. In this test the androgenic (increase in prostate weight) and anabolic activities [increase of the musculus levator ani (MLA)] of a compound are tested in immature castrated rats after daily administration for 7 days; see Hershberger, L. G. et al, Myotrophic activity of 19-Nortestosterone and other steroids determined by modified levator ani muscle method, Proceedings of the society for experimental biology and medicine 83, 175-180 (1953). Additionally, the effect of an androgenic compound on LH suppression can be tested in mature castrated rats according to Kumar, N. et al, The biological activity of 7alpha-methyl-19-nortestosterone is not amplified in male reproductive tract as is that of testosterone, Endocrinology 130, 3677-3683 (1992).
# A plurality of compounds according to the invention were tested for androgenic activity (the procedures for which have been described above) and rated in the Table below according to the following scheme: • + androgenic activity found; • ++ high androgenic activity; • +++ excellent androgenic activity; • nd no data available
row,SMILES,Rating (androgenic activity)
1,"CCCC[C@H]1CC[C@H](C(=O)OC[C@@H]2CC[C@@H]3[C@H]4[C@H](CC[C@]23C)[C@H]2CCC(=O)C=C2C[C@H]4C)CC1 (relative stereo) [Example 33d, (7α,14β,17α)-17-[[[(trans-4-Butylcyclohexyl)carbonyl]oxy]methyl]-7-methylestr-4-en-3-one]",+
2,"C[C@]12CC[C@@H]3C4=C(CC[C@H]3[C@H]1CC[C@H]2CO)CC(=O)CC4 [Example 2, (14β,17α)-17-(Hydroxymethyl)estr-5(10)-en-3-one]",++
3,"C[C@]12CCC3=C4CCC(=O)C=C4CC[C@H]3[C@H]1CC[C@H]2CO [Example 3, (14β,17α)-17-(Hydroxymethyl)estra-4,9-dien-3-one]",+
4,"C[C@@H]1CC2=CC(=O)CC[C@@H]2[C@H]2CC[C@]3(C)[C@H](CO)CC[C@@H]3[C@@H]21 [Example 4, (7α,14β,17α)-17-(Hydroxymethyl)-7-methylestr-4-en-3-one]",+++
5,"C[C@@H]1CC2=CC(=O)CC[C@@H]2[C@H]2CC[C@@]3(C)[C@H](C=C[C@H]3CO)[C@@H]21 [Example 5, (7α,14β,17α)-17-(hydroxymethyl)-7-methylestra-4,15-dien-3-one]",+++
6,"C[C@@H]1CC2=CC(=O)CC[C@@H]2[C@H]2CC[C@]3(C)[C@H](CO)CC[C@]3(C)[C@@H]21 [Example 6, (7α,14β,17α)-17-(Hydroxymethyl)-7,14-dimethylestr-4-en-3-one]",++
7,"C[C@@H]1CC2=CC(=O)CC[C@@H]2[C@H]2CC[C@]3(C)[C@H](CO)C[C@@H](C)[C@@H]3[C@@H]21 [Example 7, (7α,14β,15β,17α)-17-(Hydroxymethyl)-7,15-dimethylestr-4-en-3-one]",+
8,"C[C@@H]1CC2=CC(=O)CC[C@@H]2[C@H]2CC[C@@]3(C)[C@H](C[C@@H](C)[C@H]3CO)[C@@H]21 [Example 8, (7α,14β,16α,17α)-17-(Hydroxymethyl)-7,16-dimethylestr-4-en-3-one]",+
9,"C[C@@H]1CC2=CC(=O)CC[C@@H]2[C@H]2CC[C@@]3(C)[C@H](C[C@H](C)[C@H]3CO)[C@@H]21 [Example 9, (7α,14β,16β,17α)-17-(Hydroxymethyl)-7,16-dimethylestr-4-en-3-one]",++
10,"C[C@@H]1CC2=CC(=O)CC[C@@H]2[C@H]2CC[C@@]3(C)[C@H]([C@@H]4C[C@@H]4[C@H]3CO)[C@@H]21 [Example 10, (7α,14β,15β,16β,17α)-17-(Hydroxymethyl)-7-methyl-15,16-methyleneestr-4-en-3-one]",++
11,"CC1CC2=CC(=O)CCC2C2CCC3(C)C(CCC3(C)CO)C12 (stereo not drawn) [Example 11, (7α,14β,17α)-17-(Hydroxymethyl)-7,17-dimethylestr-4-en-3-one]",+
12,"C[C@@H]1CC2=CC(=O)CC[C@@H]2[C@H]2CC[C@@]3(C)[C@H](CC[C@]3(F)CO)[C@@H]21 [Example 12, (7α,14β,17α)-17-Fluoro-17-(hydroxymethyl)-7-methylestr-4-en-3-one]",+++
13,"C[C@@H]1CC2=CC(=O)CC[C@@H]2[C@H]2CC[C@@]3(C)[C@H](CC[C@@]3(O)CO)[C@@H]21 [Example 13, (7α,14β,17β)-17-Hydroxy-17-(hydroxymethyl)-7-methylestr-4-en-3-one]",+
14,"CC[C@@H]1CC2=CC(=O)CC[C@@H]2[C@H]2CC[C@]3(C)[C@H](CO)CC[C@@H]3[C@H]12 [Example 14, (7α,14β,17α)-7-Ethyl-17-(hydroxymethyl)estr-4-en-3-one]",+
15,"C=C[C@@H]1CC2=CC(=O)CC[C@@H]2[C@H]2CC[C@]3(C)[C@H](CO)CC[C@@H]3[C@@H]21 [Example 15, (7α,14β,17α)-7-Ethenyl-17-(hydroxymethyl)estr-4-en-3-one]",++
16,"CC(O)C1CCC2C3C(C)CC4=CC(=O)CCC4C3CCC12C [Example 16a, (7α,14β,17α,20S)-20-Hydroxy-7-methyl-19-norpregn-4-en-3-one]",++
